# Test results as given in publication PMC10788856, “Mimicking Nonribosomal Peptides from the Marine Actinomycete Streptomyces sp. H-KF8 Leads to Antimicrobial Peptides” (ACS Infectious Diseases, 2023).
# Numbered stars: 1 amine (or outer) side, 2 acyl side, 3 side chain; on linkers, the order of the positions; unused ones are H or OH. Bridge positions count the residues as written; N and C are the ends. Square brackets hold non-standard residues; d marks the D form. Peptide text beside a SMILES is read from it. Tyr(3-NO2) = N[C@@H](Cc1ccc(O)c([N+](=O)[O-])c1)C(=O)O; Glutaryl = O=C(CCCC(=O)[*:2])[*:1]; Orn = NCCC[C@H](N)C(=O)O
# Legend:
# [1] = tested on: S. aureus (ATCC 12600); assay: Minimum microbicidal concentration (MMC99) assay; type: cell-based; settings: BHI diluted 1/100, 37 °C, median, n = 3
# Description: (§1) The microbicidal activity of the synthetic peptides was assessed against S. aureus (ATCC 12600; American Type Culture Collection, Manassas, VA, USA), Escherichia coli (CCUG 31246; Culture Collection, University of Gothenburg, Sweden), and Candida albicans (ATCC 64549/CCUG31028) using an MMC assay, as described previously by […] et al. (specific details in Supporting Information, pages 10, 11).[28] The assay was performed in BHI diluted 1/100 (BHI100). […] page 11: Table S5. Energy and structural ensembles of synthesized peptides. […] Energy -3887.06 -3620.88 -4968.42 -2163.76 -2646.75 Van der Waals solv. Energy 117.32 91.57 183.20 -88.88 -139.89 Mean RMSD* (Å), mean±SD […] Heavy atoms 1.87 ± 0.33 1.77 ± 0.50 0.98 ± 0.34 0.63 ±0.22 2.88 ±0.62 MMC99 activity including salt stability measurements Antimicrobial activity of L2 and L3 in the presence of NaCl. 1Table S6. Peptide MMC99 (μg/ml) sin NaCl S. aureus E.coli C. albicans (mM) 2[…] 0 50 25 25 85 - - - - - - >200 >200 >200 150 - - - - - - >200 >200 >200 3L 0 12.5 12.5 25 12,5 6.3 6.3 12.5 6.3 12.5 […] 150 >400 >400 (-)2 >400 >400 >400 >200 >200 >200 […] or 150 mM NaCl. L2 and L3 were serially diluted in twofold steps with a starting dilution of 200 μg/ml […] All sample dilutions were run in duplicates (L2) or triplicates (L3). 2 The growth of S. aureus at 24 h in BHI 100 with 85 or 150 mM NaCl was reduced. Minimum microbicidal concentration (MMC), killing 99% of the inoculum. All microorganisms were cultured in brain-heart infusion broth (BHI) overnight on a shaker at 37°C. The cultures were thereafter transferred to fresh BHI broth in volumes constituting 10% of total, and incubated for an additional 2 h to reach exponential growth phase. The bacterial cultures were washed once in BHI diluted 1/100 (BHI100), followed by resuspension in BHI100. The cell suspensions were diluted to a density of […] (bacteria) or 2x10^7 CFU/ml (yeast), as estimated by optical density measurement at 590 nm. […] Serum stability Figure S 133. […] A) peptide L2 B) peptide L3. C) peptide L3-K. D) peptide C3.
# [2] = tested on: Candida albicans (ATCC 64549/CCUG31028); assay: Minimum microbicidal concentration (MMC99) assay; type: cell-based, C. albicans; settings: BHI diluted 1/100, 37 °C, median, n = 3
# Description: as §1
# [3] = 37 °C, RP-HPLC
# Description: Peptide stability in serum is another limiting factor for AMPs as novel antibiotics.[30]
# Peptide serum stability was performed according to D́Aloisio et al.[30] and Chen et al.[51] with some minor modifications. The serum stability was investigated using human serum (Sigma-Aldrich) from Human male AB plasma, USA origin, sterile-filtered. 250 μL serum was temperature-equilibrated at 37 °C and 100 μL aqueous peptide solution (L2: 1 mM; L3: 0.9 mM; L3-K: 0.7 mM; and C3: 0.5 mM) was added. RP-HPLC was measured at time intervals of 0, 0.5, 1, 4, and 24 h. For RP-HPLC samples, 30 μL of peptide solution was taken, 7 μL of Fmoc-Gly solution (4 mM) was added, and 2 μL of the sample was injected to HPLC. […]
# Figure S 133. RP-HPLC chromatogram (gradient from 10 to 90% acetonitrile in water over 10 min at 2
# ml/min, detection at 254 nm) of peptides tested for serum stability. A) peptide L2 B) peptide L3. C)
# (1 picture or pasted object on this page, not shown here)
# [4] = tested on: E. coli CCUG31246; assay: DiSC(3)5 microscopy (membrane potential); type: cell-based; settings: 0.5 μM DiSC(3)5
# Text: Propidium iodide is a large organic molecule that is not suitable to detect smaller ion-conducting pores or channels induced by antimicrobials. To assess whether the peptides may form smaller membrane pores sufficient for the passage of ions, we tested their effects on the membrane potential using the fluorescence probe DiSC(3)5.[40] This dye accumulates in the cell membrane in a membrane potential-dependent manner and disassociates, when the membrane potential is dissipated. […] This effect can be clearly seen with polymyxin B (Figure 7b).
# The membrane potential of E. coli CCUG31246 and E. coli MC4100 carrying pABCON2-fhuA ΔC/Δ4L was measured by DiSC(3)5 microscopy according to ref. ([40]) with minor modifications. Cells were grown in 1:10 BHI containing 50 μg/mL bovine serum albumin to an OD600 of 0.3 prior to antibiotic treatment with the respective peptides for 10 and 60 min. Samples were stained with 0.5 μM DiSC(3)5 for 15 min (added 5 min before adding antibiotics for the 10 min time point and after 45 min of antibiotic treatment for the 60 min time point). Stained samples were spotted on 1.2% agarose, sealed with a gene frame, and imaged immediately. Microscopy was performed as described above, and fluorescence intensity was analyzed with the same parameters used for propidium iodide detection.
# [5] = tested on: E. coli MC4100 pABCON2-fhuA ΔC/Δ4L; assay: DiSC(3)5 microscopy (membrane potential), outer membrane permeable strain; type: cell-based; settings: 1× MIC; 10 and 60 min; 0.5 μM DiSC(3)5
# Description: To test this hypothesis, we employed an E. coli strain that overexpresses the outer membrane porin FhuA, making these cells more permeable to most fluorescence dyes including DiSC(3)5.[41]
compound,measurement,setting,value
CC(C)[C@H]1NC(=O)[C@H](CCCN)NC(=O)[C@H]([C@@H](C)O)NC(=O)[C@H](CCCN)NC(=O)[C@H](Cc2c[nH]c3ccccc23)NC(=O)[C@@H](C)NC(=O)[C@@H](C(C)C)NC(=O)[C@@H](C)NC(=O)[C@H](Cc2c[nH]c3ccccc23)NC(=O)CCCC(=O)NCCCC[C@@H](C(N)=O)NC(=O)[C@H](Cc2ccc(O)c([N+](=O)[O-])c2)NC1=O [C3] (W[dA][dV][dA]W[Orn]T[Orn][dV][Tyr(3-NO2)]K-NH2; linker N-11 via Glutaryl),S. aureus MMC99 6 h,[1]; 6 h,>100 µg/mL
same,S. aureus MMC99 24 h,[1]; 24 h,>100 µg/mL
same,S. aureus MMC99 2 h,"[1]; lowest concentration killing 99% of inoculum, 2 h, two-fold dilutions 100-1.6 μg/mL",>100 µg/mL
same,C. albicans MMC99 2 h,[2]; 2 h,>100 µg/mL
same,C. albicans MMC99 6 h,[2]; 6 h,>100 µg/mL
same,C. albicans MMC99 24 h,[2]; 24 h,>100 µg/mL
same,stability in human serum,"[3]; human serum from male AB plasma, 250 μL serum + 100 μL aqueous peptide solution (L2 1 mM; L3 0.9 mM; L3-K 0.7 mM; C3 0.5 mM), 0, 0.5, 1, 4, 24 h, Fmoc-Gly internal standard",stable after 24 h
same,"additional peaks / shoulder in chromatogram after 24 h in serum, total volume percentage","[3]; human serum, 24 h, detection at 254 nm",does not show any additional signal
same,"membrane potential, DiSC(3)5 fluorescence, 10 min","[4]; 1× MIC of peptide, polymyxin B 10 μg/mL, 10 min",no effect on the membrane potential
same,"membrane potential, DiSC(3)5 fluorescence, 60 min","[4]; 1× MIC, 60 min",partial depolarization
same,membrane depolarization in the FhuA-overexpressing strain,[5],stronger depolarization in the FhuA-overexpressing strain
